Measured values published in patent US20240132431A1, “METHOD FOR ALKYLATING ACIDIC FUNCTIONAL GROUP” (Chugai Seiyaku Kabushiki Kaisha, priority 2021, published 2024).

Target: T1, Bcl-2 protein (Recombinant Human Bcl-2 Protein) (Homo sapiens, UniProt P10415)
T1 construct: purchased Novus NBP2-34889
Test: Binding evaluation of mixture library compounds to Bcl-2 using AS-MS (affinity selection mass spectrometry)
Conditions: for ASMS ratio (%) n = 1 / ASMS ratio (%) n = 2: ASMS Ratio(%)=(A−C)/B×100; for ASMS ratio (%) n = 1: replicate n = 1; for ASMS ratio (%) n = 2: replicate n = 2
Procedure, shortened: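 Bcl-2 binding is scored from LC/MS signal retained with protein through gel-filtration spin columns, normalised to unfiltered and protein-free controls. Incubation: 20 μM protein, […] per compound, 1 h, 23° C.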

[1] = AS-MS, mixture of 1200 compounds, Bcl-2
[2] = AS-MS on the mixture of 1200 library compounds

T1 sequence (P10415 whole entry): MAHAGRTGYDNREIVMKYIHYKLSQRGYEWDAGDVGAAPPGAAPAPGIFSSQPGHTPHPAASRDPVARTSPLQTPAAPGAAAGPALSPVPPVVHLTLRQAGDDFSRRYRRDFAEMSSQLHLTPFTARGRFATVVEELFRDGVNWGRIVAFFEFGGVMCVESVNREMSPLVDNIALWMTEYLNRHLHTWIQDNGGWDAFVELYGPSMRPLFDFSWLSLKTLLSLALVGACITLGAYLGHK

With `CCOc1cncc(-c2cc(C(=O)N3CCN(c4ccc(C(=O)NS(=O)(=O)CCC(F)(F)F)cc4)CC3)cc(C(F)(F)F)c2)c1` [B2N040-01, 4-[4-[3-(5-Ethoxypyridin-3-yl)-5-(trifluoromethyl)benzoyl]piperazin-1-yl]-N-(3,3,3-trifluoropropylsulfonyl)benzamide] the “ASMS ratio (%)” value (n = 1) was 0.0% and the “ASMS ratio (%)” value (n = 2) was 0.0%.

For `CCOc1cncc(-c2ccccc2CCC(=O)N2CCN(c3ccc(C(=O)NCC(F)(F)F)nn3)CC2)c1` [B1K012-01, 6-[4-[3-[2-(5-Ethoxypyridin-3-yl)phenyl]propanoyl]piperazin-1-yl]-N-(2,2,2-trifluoroethyl)pyridazine-3-carboxamide], the “ASMS ratio (%) n = 1” value [1] was 0.0% and the “ASMS ratio (%) n = 2” value [1] was −0.4%.

In the case of `CCOc1cncc(-c2cc(CN3CCN(c4ccc(C(=O)N(CC)CC)cc4)CC3)cc(OC(C)C)c2)c1` [B4J058-01, 4-[4-[[3-(5-Ethoxypyridin-3-yl)-5-propan-2-yloxyphenyl]methyl]piperazin-1-yl]-N,N-diethylbenzamide], the “ASMS ratio (%) n = 1” value [2] is reported as 2.2% and the “ASMS ratio (%) n = 2” value [2] is reported as 0.5%.

In the case of `CCOc1cncc(-c2ccc(C(=O)N3CCN(c4ccc(C(=O)NS(=O)(=O)CCC(F)(F)F)cc4)CC3)cc2C)c1` [B2N026-01, 4-[4-[4-(5-Ethoxypyridin-3-yl)-3-methylbenzoyl]piperazin-1-yl]-N-(3,3,3-trifluoropropylsulfonyl)benzamide], the “ASMS ratio (%)” value (n = 1) is reported as −1.5% and the “ASMS ratio (%)” value (n = 2) is reported as −0.7%.

`CCOc1cncc(-c2ccc(CN3CCN(c4ccc(C(=O)N(C)CC56CC7CC(CC(C7)C5)C6)cc4)CC3)cc2C)c1` [B3A048-01, N-(1-Adamantylmethyl)-4-[4-[[4-(5-ethoxypyridin-3-yl)-3-methylphenyl]methyl]piperazin-1-yl]-N-methylbenzamide] was tested, and the “ASMS ratio (%) n = 1” value [2] was 7.3% and the “ASMS ratio (%) n = 2” value [2] was −8.8%.

In the case of `CCOc1cncc(C#Cc2ccccc2C(=O)N2CCN(c3ccc(C(=O)NCC(F)(F)F)nn3)CC2)c1` [B1K008-01, 6-[4-[2-[2-(5-Ethoxypyridin-3-yl)ethynyl]benzoyl]piperazin-1-yl]-N-(2,2,2-trifluoroethyl)pyridazine-3-carboxamide], the “ASMS ratio (%) n = 1” value [1] is reported as 0.0% and the “ASMS ratio (%) n = 2” value [1] is reported as 0.0%.

In the case of `CCOc1cncc(-c2ccc(C(C)N3CCN(c4ccc(C(=O)NS(=O)(=O)CCC(F)(F)F)cc4)CC3)c(F)c2)c1` (stereo not shown) [B2N100-01, 4-[4-[1-[4-(5-Ethoxypyridin-3-yl)-2-fluorophenyl]ethyl]piperazin-1-yl]-N-(3,3,3-trifluoropropylsulfonyl)benzamide], the “ASMS ratio (%)” value (n = 1) is reported as 0.0% and the “ASMS ratio (%)” value (n = 2) is reported as 0.0%.

In the case of `CCOc1cncc(-c2ccc(CN3CCN(c4ccc(C(=O)NCC(F)(F)F)cc4)CC3)c(CC)c2)c1` [B1K050-01], the “ASMS ratio (%) n = 1” value [1] is reported as 0.0% and the “ASMS ratio (%) n = 2” value [1] is reported as 0.0%.

`CCOc1cccc(-c2ccc(C(=O)N3CCN(c4ccc(C(=O)Nc5ccc(OC)cc5)nn4)CC3)cc2C)c1` [B1O003-01, 6-[4-[4-(3-Ethoxyphenyl)-3-methylbenzoyl]piperazin-1-yl]-N-(4-methoxyphenyl)pyridazine-3-carboxamide] was tested, and the “ASMS ratio (%) n = 1” value [2] was 0.0% and the “ASMS ratio (%) n = 2” value [2] was 0.0%.

`CCOc1cccc(-c2cc(C(=O)N3CCN(c4ccc(C(=O)Nc5ccc(OC)cc5)cc4)CC3)cc(C(C)(C)C)c2)c1` [B1O037-01, 4-[4-[3-tert-Butyl-5-(3-ethoxyphenyl)benzoyl]piperazin-1-yl]-N-(4-methoxyphenyl)benzamide] was tested, and the “ASMS ratio (%) n = 1” value [2] was 4.7% and the “ASMS ratio (%) n = 2” value [2] was −1.7%.

With “4-[4-[3-[2-(3-Ethoxyphenyl)phenyl]propanoyl]piperazin-1-yl]-N-propylbenzamide [B1M068-01]” the “ASMS ratio (%) n = 1” value [1] was 1.1% and the “ASMS ratio (%) n = 2” value [1] was 0.0%.

With `CCOc1cccc(-c2cc(C(=O)N3CCN(c4ccc(C(=O)N(CC)CC)nn4)CC3)cc(C(C)(C)C)c2)c1` [B4J015-01, 6-[4-[3-tert-Butyl-5-(3-ethoxyphenyl)benzoyl]piperazin-1-yl]-N,N-diethylpyridazine-3-carboxamide] the “ASMS ratio (%) n = 1” value [2] was 0.0% and the “ASMS ratio (%) n = 2” value [2] was 0.0%.

In the case of `CCOc1cncc(-c2cc(C(=O)N3CCN(c4ccc(C(=O)NS(=O)(=O)c5ccc(NCCSc6ccccc6)c(C(F)(F)F)c5)nn4)CC3)cc(C(F)(F)F)c2)c1` [B2R018-01, 6-[4-[3-(5-Ethoxypyridin-3-yl)-5-(trifluoromethyl)benzoyl]piperazin-1-yl]-N-[4-(2-phenylsulfanylethylamino)-3-(trifluoromethyl)phenyl]sulfonylpyridazine-3-carboxamide], the “ASMS ratio (%)” value (n = 1) is reported as 5.1% and the “ASMS ratio (%)” value (n = 2) is reported as 7.8%.

For `CCOc1cncc(-c2ccccc2CN2CCN(c3ccc(C(=O)NS(=O)(=O)c4ccc(NCCSc5ccccc5)c(C(F)(F)F)c4)nn3)CC2)c1` [B2R072-01, 6-[4-[[2-(5-Ethoxypyridin-3-yl)phenyl]methyl]piperazin-1-yl]-N-[4-(2-phenylsulfanylethylamino)-3-(trifluoromethyl)phenyl]sulfonylpyridazine-3-carboxamide], the “ASMS ratio (%)” value (n = 1) was 21.4% and the “ASMS ratio (%)” value (n = 2) was 11.4%.

In the case of “4-[4-[[4-(3-Ethoxyphenyl)naphthalen-1-yl]methyl]piperazin-1-yl]-N-propylbenzamide [B1M044-01]”, the “ASMS ratio (%) n = 1” value [1] is reported as 1.0% and the “ASMS ratio (%) n = 2” value [1] is reported as 1.1%.

For `CCOc1cncc(C#Cc2ccccc2CN2CCN(c3ccc(C(=O)N(CC)CC)cc3)CC2)c1` [B4J070-01], the “ASMS ratio (%) n = 1” value (AS-MS, mixture library, Bcl-2) was 0.0% and the “ASMS ratio (%) n = 2” value (AS-MS, mixture library, Bcl-2) was 0.0%.

In the case of `CCOc1cccc(-c2ccc(CN3CCN(c4ccc(C(=O)NCC56CC7CC(CC(C7)C5)C6)nn4)CC3)c(OC)c2)c1` [B1A079-01, N-(1-Adamantylmethyl)-6-[4-[[4-(3-ethoxyphenyl)-2-methoxyphenyl]methyl]piperazin-1-yl]pyridazine-3-carboxamide], the “ASMS ratio (%) n = 1” value [1] is reported as 3.9% and the “ASMS ratio (%) n = 2” value [1] is reported as −3.9%.

In the case of `CCOc1cccc(C#Cc2cc(C(=O)N3CCN(c4ccc(C(=O)N(C)CC56CC7CC(CC(C7)C5)C6)cc4)CC3)cc(C(F)(F)F)c2)c1` [B3A041-01, N-(1-Adamantylmethyl)-4-[4-[3-[2-(3-ethoxyphenyl)ethynyl]-5-(trifluoromethyl)benzoyl]piperazin-1-yl]-N-methylbenzamide], the “ASMS ratio (%) n = 2” value [2] is reported as 425.9%.

In the case of `CCOc1cncc(-c2ccc(CN3CCN(c4ccc(C(=O)NS(C)(=O)=O)nn4)CC3)c3ccccc23)c1` [B2I092-01, 6-[4-[[4-(5-Ethoxypyridin-3-yl)naphthalen-1-yl]methyl]piperazin-1-yl]-N-methylsulfonylpyridazine-3-carboxamide], the “ASMS ratio (%)” value (n = 1) is reported as 2.6% and the “ASMS ratio (%)” value (n = 2) is reported as 0.3%.

With `CCOc1cccc(-c2cc(CN3CCN(c4ccc(C(=O)NS(=O)(=O)CC56CC7CC(CC(C7)C5)C6)cc4)CC3)cc(OCC)c2)c1` [B2A055-01, N-(1-Adamantylmethylsulfonyl)-4-[4-[[3-ethoxy-5-(3-ethoxyphenyl)phenyl]methyl]piperazin-1-yl]benzamide] the “ASMS ratio (%) n = 1” value (AS-MS, mixture library, Bcl-2) was 5.8% and the “ASMS ratio (%) n = 2” value (AS-MS, mixture library, Bcl-2) was −7.3%.

In the case of `CCOc1cncc(-c2ccc(CN3CCN(c4ccc(C(=O)NS(=O)(=O)CCC(F)(F)F)nn4)CC3)cc2F)c1` [B2N078-01, 6-[4-[[4-(5-Ethoxypyridin-3-yl)-3-fluorophenyl]methyl]piperazin-1-yl]-N-(3,3,3-trifluoropropylsulfonyl)pyridazine-3-carboxamide], the “ASMS ratio (%)” value (n = 1) is reported as 0.0% and the “ASMS ratio (%)” value (n = 2) is reported as 0.0%.

In the case of `CCOc1cncc(C#Cc2cc(C(=O)N3CCN(c4ccc(C(=O)NCC(F)(F)F)cc4)CC3)cc(C(F)(F)F)c2)c1` [B1K042-01, 4-[4-[3-[2-(5-Ethoxypyridin-3-yl)ethynyl]-5-(trifluoromethyl)benzoyl]piperazin-1-yl]-N-(2,2,2-trifluoroethyl)benzamide], the “ASMS ratio (%) n = 1” value [1] is reported as 5.0% and the “ASMS ratio (%) n = 2” value [1] is reported as −0.1%.

With `CCOc1cccc(-c2ccccc2CCC(=O)N2CCN(c3ccc(C(=O)N(CC)CC)nn3)CC2)c1` [B4J011-01, 6-[4-[3-[2-(3-Ethoxyphenyl)phenyl]propanoyl]piperazin-1-yl]-N,N-diethylpyridazine-3-carboxamide] the “ASMS ratio (%) n = 1” value [2] was −0.1% and the “ASMS ratio (%) n = 2” value [2] was −0.9%.

`CCOc1cncc(-c2ccc(C(=O)N3CCN(c4ccc(C(=O)NCC56CC7CC(CC(C7)C5)C6)cc4)CC3)c3ccccc23)c1` [B1A036-01, N-(1-Adamantylmethyl)-4-[4-[4-(5-ethoxypyridin-3-yl)naphthalene-1-carbonyl]piperazin-1-yl]benzamide] was tested, and the “ASMS ratio (%) n = 1” value [1] was 0.4% and the “ASMS ratio (%) n = 2” value [1] was 3.1%.

With `CCOc1cncc(C#Cc2ccccc2C(=O)N2CCN(c3ccc(C(=O)NS(=O)(=O)C(C)(C)C)nn3)CC2)c1` [B2L008-01, N-tert-Butylsulfonyl-6-[4-[2-[2-(5-ethoxypyridin-3-yl)ethynyl]benzoyl]piperazin-1-yl]pyridazine-3-carboxamide] the “ASMS ratio (%)” value (n = 1) was 0.0% and the “ASMS ratio (%)” value (n = 2) was 0.0%.
